Assays:
[1] = molecular target: Ribosomal protein S6 kinase alpha-4 (Homo sapiens) (UniProt O75676); settings: Compound concentration 1000.0 nM
[2] = molecular target: Proto-oncogene tyrosine-protein kinase receptor Ret (Homo sapiens) (UniProt P07949); test: Ret(h) Eurofins kinase panel; settings: Compound concentration 1.0 uM
[3] = molecular target: Serine/threonine-protein kinase VRK2 (Homo sapiens) (UniProt Q86Y07); test: VRK2(h) Eurofins kinase panel; settings: Compound concentration 1.0 uM
[4] = molecular target: Myosin light chain kinase 2, skeletal/cardiac muscle (Homo sapiens) (UniProt Q9H1R3); test: MYLK2(h) Eurofins kinase panel; settings: Compound concentration 1.0 uM
Chain of Myosin light chain kinase 2, skeletal/cardiac muscle (Homo sapiens) (Q9H1R3 whole entry): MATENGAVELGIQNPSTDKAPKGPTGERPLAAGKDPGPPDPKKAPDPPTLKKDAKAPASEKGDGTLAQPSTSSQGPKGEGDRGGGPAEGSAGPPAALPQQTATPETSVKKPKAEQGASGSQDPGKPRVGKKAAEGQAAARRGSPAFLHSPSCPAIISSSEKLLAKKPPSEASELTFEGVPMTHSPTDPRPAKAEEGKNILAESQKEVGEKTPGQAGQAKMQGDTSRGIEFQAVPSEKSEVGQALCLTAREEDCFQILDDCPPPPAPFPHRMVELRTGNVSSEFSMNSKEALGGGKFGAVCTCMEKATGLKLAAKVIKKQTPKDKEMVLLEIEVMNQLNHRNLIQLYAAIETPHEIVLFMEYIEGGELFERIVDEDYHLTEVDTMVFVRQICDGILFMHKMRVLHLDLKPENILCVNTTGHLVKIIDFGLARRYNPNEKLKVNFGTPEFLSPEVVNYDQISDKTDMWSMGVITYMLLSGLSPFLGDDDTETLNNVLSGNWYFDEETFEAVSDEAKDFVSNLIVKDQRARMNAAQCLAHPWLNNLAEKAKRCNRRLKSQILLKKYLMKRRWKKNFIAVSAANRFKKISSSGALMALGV

[5] = molecular target: PI3K p110 beta/p85 alpha (Homo sapiens) (UniProt P27986+P42338); test: PI3 Kinase(p110b/p85a)(h) Eurofins kinase panel; type: protein-complex assay; settings: Compound concentration 1.0 uM
[6] = molecular target: RAC-alpha serine/threonine-protein kinase (Homo sapiens) (UniProt P31749); test: PKBalpha (h) Eurofins kinase panel; settings: Compound concentration 1.0 uM
[7] = molecular target: T1, Serine/threonine-protein kinase Nek9 (Homo sapiens) (UniProt Q8TD19); test: NEK9(h) Eurofins kinase panel; settings: Compound concentration 1.0 uM
T1 sequence (whole entry): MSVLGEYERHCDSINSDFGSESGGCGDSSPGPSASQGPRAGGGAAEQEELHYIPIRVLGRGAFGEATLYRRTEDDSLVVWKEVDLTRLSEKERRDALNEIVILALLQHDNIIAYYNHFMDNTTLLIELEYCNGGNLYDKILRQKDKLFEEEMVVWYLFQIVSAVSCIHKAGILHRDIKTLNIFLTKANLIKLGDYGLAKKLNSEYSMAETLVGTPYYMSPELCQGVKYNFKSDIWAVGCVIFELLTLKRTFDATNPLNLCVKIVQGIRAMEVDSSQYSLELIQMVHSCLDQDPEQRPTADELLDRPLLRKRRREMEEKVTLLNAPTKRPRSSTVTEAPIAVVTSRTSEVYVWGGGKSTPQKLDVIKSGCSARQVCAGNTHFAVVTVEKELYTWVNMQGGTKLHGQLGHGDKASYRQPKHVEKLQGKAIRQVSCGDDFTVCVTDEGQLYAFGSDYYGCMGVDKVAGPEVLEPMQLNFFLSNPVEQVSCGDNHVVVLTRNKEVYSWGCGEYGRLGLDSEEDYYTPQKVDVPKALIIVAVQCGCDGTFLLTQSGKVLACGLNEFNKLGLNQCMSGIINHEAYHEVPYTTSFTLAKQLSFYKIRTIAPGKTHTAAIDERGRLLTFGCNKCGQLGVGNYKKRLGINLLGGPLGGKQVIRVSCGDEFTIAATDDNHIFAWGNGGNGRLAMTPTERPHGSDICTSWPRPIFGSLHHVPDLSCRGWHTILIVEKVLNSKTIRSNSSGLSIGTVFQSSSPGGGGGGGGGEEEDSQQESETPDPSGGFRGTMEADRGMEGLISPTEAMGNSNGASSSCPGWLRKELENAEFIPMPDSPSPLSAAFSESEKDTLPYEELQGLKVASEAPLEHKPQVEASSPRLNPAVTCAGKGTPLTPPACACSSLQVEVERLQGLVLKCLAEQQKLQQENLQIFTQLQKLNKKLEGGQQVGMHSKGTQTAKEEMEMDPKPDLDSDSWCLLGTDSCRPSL

IMR-32 = test: IMR-32 cell line Proliferation assay; type: functional, Homo sapiens; settings: time 6 day
[8] = molecular target: Cyclin-dependent kinase-like 1 (Homo sapiens) (UniProt Q00532); test: CDKL1(h) Eurofins kinase panel; settings: Compound concentration 1.0 uM
Chain of Cyclin-dependent kinase-like 1 (Homo sapiens) (Q00532 whole entry): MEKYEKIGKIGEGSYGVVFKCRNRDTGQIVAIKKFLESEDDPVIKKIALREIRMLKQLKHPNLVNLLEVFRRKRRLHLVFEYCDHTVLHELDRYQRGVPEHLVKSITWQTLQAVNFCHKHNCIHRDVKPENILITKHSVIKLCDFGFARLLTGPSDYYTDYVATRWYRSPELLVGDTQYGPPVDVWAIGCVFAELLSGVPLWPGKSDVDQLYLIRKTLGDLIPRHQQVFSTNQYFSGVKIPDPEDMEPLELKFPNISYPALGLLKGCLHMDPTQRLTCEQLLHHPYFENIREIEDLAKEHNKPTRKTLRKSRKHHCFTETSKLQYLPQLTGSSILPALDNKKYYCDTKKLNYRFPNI

[9] = molecular target: Protein kinase C beta type (Homo sapiens) (UniProt P05771); test: PKCbetaII (h) Eurofins kinase panel; settings: Compound concentration 1.0 uM
Chain of Protein kinase C beta type (Homo sapiens) (P05771 2-671 limits assumed): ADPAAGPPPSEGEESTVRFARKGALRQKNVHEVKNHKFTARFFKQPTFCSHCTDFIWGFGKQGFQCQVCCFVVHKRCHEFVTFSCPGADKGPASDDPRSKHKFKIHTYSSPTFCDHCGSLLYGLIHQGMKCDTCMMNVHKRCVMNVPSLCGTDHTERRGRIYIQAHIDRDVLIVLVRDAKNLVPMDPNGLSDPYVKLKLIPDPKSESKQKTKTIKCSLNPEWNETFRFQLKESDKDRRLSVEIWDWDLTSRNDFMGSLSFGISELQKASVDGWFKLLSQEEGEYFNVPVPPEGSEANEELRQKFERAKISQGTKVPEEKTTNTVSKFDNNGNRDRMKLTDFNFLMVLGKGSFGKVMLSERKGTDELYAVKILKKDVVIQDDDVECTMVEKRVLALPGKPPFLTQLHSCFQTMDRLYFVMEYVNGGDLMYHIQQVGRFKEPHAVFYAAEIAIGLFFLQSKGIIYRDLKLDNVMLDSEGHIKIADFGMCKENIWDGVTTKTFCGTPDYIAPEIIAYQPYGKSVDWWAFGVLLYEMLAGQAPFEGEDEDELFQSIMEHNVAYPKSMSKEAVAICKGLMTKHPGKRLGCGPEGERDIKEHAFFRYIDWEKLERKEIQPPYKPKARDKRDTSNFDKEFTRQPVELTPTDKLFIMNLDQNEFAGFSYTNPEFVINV

A-375 = test: A375 cell line Proliferation assay; type: functional, Homo sapiens; settings: time 3 day
[10] = molecular target: Mitogen-activated protein kinase kinase kinase 20 (Homo sapiens) (UniProt Q9NYL2); test: ZAK(h) Eurofins kinase panel; settings: Compound concentration 1.0 uM
[11] = molecular target: T2, Serine/threonine-protein kinase ICK (Homo sapiens) (UniProt Q9UPZ9); test: ICK(h) Eurofins kinase panel; settings: Compound concentration 1.0 uM
T2 sequence (whole entry): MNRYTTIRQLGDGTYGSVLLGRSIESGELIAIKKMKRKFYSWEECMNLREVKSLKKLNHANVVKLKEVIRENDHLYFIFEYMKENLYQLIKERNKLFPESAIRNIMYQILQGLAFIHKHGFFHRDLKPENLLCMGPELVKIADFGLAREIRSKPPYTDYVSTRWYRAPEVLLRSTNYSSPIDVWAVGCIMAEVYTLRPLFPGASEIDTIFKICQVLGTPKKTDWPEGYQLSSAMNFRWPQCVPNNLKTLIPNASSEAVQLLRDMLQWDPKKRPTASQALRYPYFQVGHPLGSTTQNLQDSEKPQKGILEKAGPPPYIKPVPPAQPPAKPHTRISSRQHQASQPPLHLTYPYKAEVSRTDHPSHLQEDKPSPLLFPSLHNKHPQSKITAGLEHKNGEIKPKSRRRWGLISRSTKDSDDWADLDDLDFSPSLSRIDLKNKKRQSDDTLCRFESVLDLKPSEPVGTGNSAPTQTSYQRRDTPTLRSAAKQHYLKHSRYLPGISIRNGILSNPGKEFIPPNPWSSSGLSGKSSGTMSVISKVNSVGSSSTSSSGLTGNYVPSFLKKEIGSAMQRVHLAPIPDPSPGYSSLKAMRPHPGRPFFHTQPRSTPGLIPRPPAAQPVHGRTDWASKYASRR

[12] = molecular target: Mitogen-activated protein kinase 3 (Homo sapiens) (UniProt P27361); test: MAPK1(h) Eurofins kinase panel; settings: Compound concentration 1.0 uM
Chain of Mitogen-activated protein kinase 3 (Homo sapiens) (P27361 whole entry, looked up): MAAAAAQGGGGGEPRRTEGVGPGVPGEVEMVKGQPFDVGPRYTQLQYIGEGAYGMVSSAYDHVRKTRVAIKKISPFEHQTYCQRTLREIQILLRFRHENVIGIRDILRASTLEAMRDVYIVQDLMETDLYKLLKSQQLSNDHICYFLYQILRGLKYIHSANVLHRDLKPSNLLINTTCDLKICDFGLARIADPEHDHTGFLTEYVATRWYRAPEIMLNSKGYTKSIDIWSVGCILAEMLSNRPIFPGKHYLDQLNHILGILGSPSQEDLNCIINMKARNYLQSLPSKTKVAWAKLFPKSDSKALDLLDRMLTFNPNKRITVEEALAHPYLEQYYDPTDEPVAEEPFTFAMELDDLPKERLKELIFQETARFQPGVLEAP

[13] = molecular target: Mitogen-activated protein kinase 9 (Homo sapiens) (UniProt P45984); test: JNK2alpha2(h) Eurofins kinase panel; settings: Compound concentration 1.0 uM
Chain of Mitogen-activated protein kinase 9 (Homo sapiens) (P45984 whole entry, looked up): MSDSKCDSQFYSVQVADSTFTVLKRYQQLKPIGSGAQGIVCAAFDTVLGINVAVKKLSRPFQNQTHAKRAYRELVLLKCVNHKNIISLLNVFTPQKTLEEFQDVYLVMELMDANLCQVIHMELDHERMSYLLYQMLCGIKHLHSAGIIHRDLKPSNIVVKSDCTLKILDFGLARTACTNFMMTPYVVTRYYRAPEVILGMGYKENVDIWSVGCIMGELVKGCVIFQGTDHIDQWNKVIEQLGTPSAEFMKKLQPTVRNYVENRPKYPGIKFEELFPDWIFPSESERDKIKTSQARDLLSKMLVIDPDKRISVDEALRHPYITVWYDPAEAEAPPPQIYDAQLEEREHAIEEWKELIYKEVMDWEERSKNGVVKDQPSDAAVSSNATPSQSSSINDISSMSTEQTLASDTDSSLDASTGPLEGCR

[14] = molecular target: Fibroblast growth factor receptor 4 (Homo sapiens) (UniProt P22455); test: FGFR4(h) Eurofins kinase panel; settings: Compound concentration 1.0 uM
Chain of Fibroblast growth factor receptor 4 (Homo sapiens) (P22455 22-802 limits assumed): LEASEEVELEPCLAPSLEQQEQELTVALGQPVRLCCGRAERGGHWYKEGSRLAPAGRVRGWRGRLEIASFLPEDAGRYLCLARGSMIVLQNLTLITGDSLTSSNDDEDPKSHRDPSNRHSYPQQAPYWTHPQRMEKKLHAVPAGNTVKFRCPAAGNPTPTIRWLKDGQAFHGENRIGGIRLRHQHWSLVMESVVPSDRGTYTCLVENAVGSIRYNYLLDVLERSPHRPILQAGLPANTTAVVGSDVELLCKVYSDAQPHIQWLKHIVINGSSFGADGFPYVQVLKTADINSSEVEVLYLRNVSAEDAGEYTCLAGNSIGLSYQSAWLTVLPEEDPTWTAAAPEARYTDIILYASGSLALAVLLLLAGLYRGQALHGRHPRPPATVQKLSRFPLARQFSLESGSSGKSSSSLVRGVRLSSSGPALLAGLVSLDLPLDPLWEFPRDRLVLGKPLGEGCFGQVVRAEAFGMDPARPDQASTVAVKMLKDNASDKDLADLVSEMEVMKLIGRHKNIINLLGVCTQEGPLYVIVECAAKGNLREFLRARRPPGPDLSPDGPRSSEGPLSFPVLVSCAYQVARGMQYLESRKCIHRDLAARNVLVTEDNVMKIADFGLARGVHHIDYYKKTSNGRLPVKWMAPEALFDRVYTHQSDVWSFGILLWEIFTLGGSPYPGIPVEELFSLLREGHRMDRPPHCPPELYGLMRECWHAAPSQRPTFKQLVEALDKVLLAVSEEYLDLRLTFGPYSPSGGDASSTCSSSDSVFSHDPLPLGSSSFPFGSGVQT

[15] = molecular target: Serine/threonine-protein kinase N2 (Homo sapiens) (UniProt Q16513); test: PRK2(h) Eurofins kinase panel; settings: Compound concentration 1.0 uM
Chain of Serine/threonine-protein kinase N2 (Homo sapiens) (Q16513 whole entry, looked up): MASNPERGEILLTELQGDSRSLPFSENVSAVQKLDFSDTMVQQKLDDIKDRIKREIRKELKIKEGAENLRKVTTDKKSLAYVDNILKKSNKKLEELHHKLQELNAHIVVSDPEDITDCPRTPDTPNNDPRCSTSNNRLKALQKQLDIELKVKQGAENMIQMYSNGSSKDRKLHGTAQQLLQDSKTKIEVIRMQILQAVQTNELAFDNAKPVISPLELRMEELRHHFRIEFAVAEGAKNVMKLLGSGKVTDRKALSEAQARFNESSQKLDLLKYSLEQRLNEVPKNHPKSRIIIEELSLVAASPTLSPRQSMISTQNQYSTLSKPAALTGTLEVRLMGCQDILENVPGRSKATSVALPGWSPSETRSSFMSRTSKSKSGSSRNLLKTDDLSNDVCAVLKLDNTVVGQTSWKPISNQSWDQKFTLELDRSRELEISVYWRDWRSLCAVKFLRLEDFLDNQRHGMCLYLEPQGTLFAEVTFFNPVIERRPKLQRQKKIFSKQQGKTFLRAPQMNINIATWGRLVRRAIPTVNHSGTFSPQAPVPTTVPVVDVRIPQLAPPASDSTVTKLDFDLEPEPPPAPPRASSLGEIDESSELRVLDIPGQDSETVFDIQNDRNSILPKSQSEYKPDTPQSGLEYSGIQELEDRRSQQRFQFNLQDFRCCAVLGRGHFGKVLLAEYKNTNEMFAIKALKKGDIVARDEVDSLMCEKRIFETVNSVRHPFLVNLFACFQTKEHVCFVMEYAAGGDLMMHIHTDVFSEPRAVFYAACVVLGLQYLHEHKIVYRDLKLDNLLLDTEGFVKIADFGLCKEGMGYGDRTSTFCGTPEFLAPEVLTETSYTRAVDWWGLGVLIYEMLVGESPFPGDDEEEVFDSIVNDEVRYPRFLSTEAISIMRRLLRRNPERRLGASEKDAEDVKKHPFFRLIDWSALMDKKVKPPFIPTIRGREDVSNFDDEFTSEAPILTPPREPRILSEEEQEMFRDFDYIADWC

[16] = molecular target: Receptor-type tyrosine-protein kinase FLT3 (Homo sapiens) (UniProt P36888); settings: Compound concentration 1.0 uM
[17] = molecular target: Serine/threonine-protein kinase PAK 1 (Homo sapiens) (UniProt Q13153); test: PAK1(h) Eurofins kinase panel; settings: Compound concentration 1.0 uM
Chain of Serine/threonine-protein kinase PAK 1 (Homo sapiens) (Q13153 whole entry): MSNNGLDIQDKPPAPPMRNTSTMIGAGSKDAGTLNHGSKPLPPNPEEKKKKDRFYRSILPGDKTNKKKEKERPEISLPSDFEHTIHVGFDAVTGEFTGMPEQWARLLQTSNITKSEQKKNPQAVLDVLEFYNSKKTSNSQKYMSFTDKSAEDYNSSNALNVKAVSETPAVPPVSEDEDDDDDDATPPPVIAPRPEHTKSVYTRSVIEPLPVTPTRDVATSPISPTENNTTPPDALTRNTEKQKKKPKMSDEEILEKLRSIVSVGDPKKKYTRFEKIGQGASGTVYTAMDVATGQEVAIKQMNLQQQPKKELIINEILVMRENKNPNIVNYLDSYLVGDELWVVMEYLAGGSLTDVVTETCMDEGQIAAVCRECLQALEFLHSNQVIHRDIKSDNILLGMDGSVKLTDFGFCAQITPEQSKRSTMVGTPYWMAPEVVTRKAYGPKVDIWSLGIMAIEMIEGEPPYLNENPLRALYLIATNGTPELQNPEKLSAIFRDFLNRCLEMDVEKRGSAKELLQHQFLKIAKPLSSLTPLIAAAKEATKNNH

CC1=C(C#N)C(c2ccc3c(c2)c(NC(=O)c2ccccc2C)nn3C)C(C#N)=C(C)N1 [BAY-974]
inactive: residual activity [1] 100%

CCc1ccccc1C(=O)Nc1n[nH]c2c(C)c(F)c(C3C(C#N)=C(C)N(C)C(C)=C3C#N)cc12 [BAY-3827]
inactive: % residual kinase activity [2] 23% | % residual kinase activity [3] 98% | % residual kinase activity [4] 89% | % residual kinase activity [5] 99% | % residual kinase activity [6] 91% | % residual kinase activity [7] 47% | % residual kinase activity [8] 95% | % residual kinase activity [9] 42% | % residual kinase activity [10] 99% | % residual kinase activity [11] 99% | % residual kinase activity [12] 95% | % residual kinase activity [13] 88% | % residual kinase activity [14] 99% | % residual kinase activity [15] 93% | % residual kinase activity [16] 7% | % residual kinase activity [17] 94%
>11.5 µM: Cell Proliferation IC50 (IMR-32)
22.8 µM: Cell Proliferation IC50 (A-375)

Source: ChEMBL document CHEMBL4507319 (2021)
